Measurements taken from US20260248784A1, “BTK Degrader and Use Thereof” (JIANGSU VCARE PHARMATECH CO., LTD., priority 2023, published 2026).

How the values were obtained:
PK test in mice = assay type: in vivo
Experimental: Mice were weighed and dosed, and about 50 μL of whole blood was collected from the orbital venous plexus at 5 min, 0.25 h, 0.5 h, 1 h, 2 h, 4 h, 6 h, 8 h, and 24 h after administration, using EDTA-K2 as anticoagulant. The blood samples were centrifuged at 4000 rpm for 10 min at 4° C., and 20 μL of the supernatant plasma sample was taken into an EP tube and immediately stored in a −80° C. refrigerator until analysis. 10 μL of the plasma sample was transferred to a 96-well plate and 250 μL of acetonitrile (containing internal standard) was added to precipitate proteins. The samples were centrifuged at 4000 rpm/min for 20 min in a 4° C. centrifuge. The supernatant was transferred and injected into LC MS/MS to detect the drug concentration. The data were processed by Thermo LC Quan software, and the standard curve was established using the internal standard method, with the theoretical standard curve concentration as the abscissa and the peak area ratio as the ordinate (test compound peak area/internal standard peak area). Sample concentrations were calculated using the standard curve. The pharmacokinetic parameters were calculated using WinNonlin 8.2 software.

mino cells = assay: Activity test in Mino cells (CCK8 proliferation inhibition); assay type: cell-based; settings: Homo sapiens, 72 h, 3 days, read-out: Cell inhibition IC50
Experimental: Cell culture: mino cells (culture conditions: RPMI1640 medium+15% FBS, 37° C., 5% CO2). Cell plating: The cells subcultured into the logarithmic growth phase were collected and transferred into a centrifuge tube, and centrifuged at 800 rpm for 5 min. The cells were resuspended in complete medium and counted. The cells were diluted and adjusted to a final concentration of 200000 cells/mL. The cells were then seeded into a 96-well plate with 100 μL per well. Cell administration: Each group of drug solutions was added into the 96-well plate, 100 μL per well, n=3 for each drug concentration. Meanwhile, negative wells (n=6) and blank wells (n=3) were set up. The 96-well plate was incubated in the incubator for further 3 days. CCK8 reagent was added to the 96-well plate, 20 μL per well, and then the plate was placed in the incubator for further 4 h. The absorbance of the solution was measured at a wavelength of 450 nm using an enzyme reader. The proliferation inhibition rate was calculated and the half inhibitory concentration IC50 value was calculated.

Mino cell xenograft = assay: Activity test in Mino cell xenograft model; assay type: in vivo, NOD SCID mice; settings: 30 mg/kg
[1] = test system: REC-1 (BTK C481S) cell xenograft; assay: Activity test in REC-1 (BTK C481S) cell xenograft model; assay type: in vivo, BALB/c-Nude mice; settings: REC-1 (BTK C481S) xenograft; for Tumor weight: Mean ± SEM
Experimental: REC-1 (BTK C481S) cell culture (culture conditions: RPMI1640 medium+10% FBS, 37° C., 5% CO2). The cells subcultured into the logarithmic growth phase were collected and transferred into a centrifuge tube, and centrifuged at 1300 rpm for 3 min. On the day of inoculation, the cell density was adjusted to 5*10^7 cells/mL.
Cell inoculation: The inoculation site was selected at the right shoulder blade of the experimental animal, and the inoculation density was 5*10^6 cells+matrix gel/200 μL/animal.
Experimental animals: BALB/c-Nude, female, 6-8 W.
Grouped administration: When the average tumor volume reached 80-120 mm^3, the animals were randomly grouped according to tumor volume, with the coefficient of variation (CV) of tumor volumes not exceeding ⅓ of the mean volume. The day of grouping was defined as D0, and the administration began on the day of grouping. The body weight of the mice was measured before administration, and the administration was based on the body weight on that day.
Experimental observation and data collection: After cell inoculation, the effect of the tumor on the normal behavior of the animals was routinely monitored every week. Specific contents include the activity, food and water intake, weight gain or loss, eyes, fur and other abnormalities of the experimental animals. After the start of administration, the mice were weighed and dosed daily, and tumor volume was measured twice a week. The tumor volume was calculated as follows: tumor volume (mm^3)=0.52×tumor long diameter (mm)×tumor short diameter (mm)^2. At the end of the experiment, the following indicators were analyzed: tumor growth curve, mouse body weight curve, tumor weight, uniform photography of the excised tumors arranged according to groups, and calculation of tumor volume inhibition rate (TGI).
TGITV (Relative tumor volume inhibition rate) calculation formula:
[formula] • Vnt: Tumor volume of the mouse numbered n on day t; • Vn0: Tumor volume of the mouse numbered n on day 0; • RTVn: Relative tumor volume of the mouse numbered n on day t; • mean RTVtreat: RTV mean of the administration group; • mean RTVvehicle: RTV mean of the Vehicle group; • The experimental results such as tumor volume and mouse body weight of each group of animals are expressed as mean±standard error of the mean (Mean±SEM). T test was used for comparison between the two groups. One-way ANOVA was used for comparisons among three or more groups.

Bioavialibility (PK test in mice; PO 20 mg/kg vs IV 5 mg/kg): 51.8%
AUC(0-inf) (PK test in mice; mouse, IV 5 mg/kg, plasma): 44500 ± 4610 ng·h/mL
AUC(0-t) (PK test in mice; mouse, IV 5 mg/kg, plasma): 42800 ± 5760 ng·h/mL
MRT (PK test in mice; mouse, IV 5 mg/kg, plasma): 5.25 ± 0.17 h
half-life (PK test in mice; mouse, IV 5 mg/kg, plasma): 321 ± 96.6 min
AUC(0-inf) (PK test in mice; mouse, PO 20 mg/kg, plasma): 92200 ± 33200 ng·h/mL
AUC(0-t) (PK test in mice; mouse, PO 20 mg/kg, plasma): 83500 ± 22200 ng·h/mL
Cmax (PK test in mice; mouse, PO 20 mg/kg, plasma): 8950 ± 339 ng/mL
MRT (PK test in mice; mouse, PO 20 mg/kg, plasma): 6.46 ± 1.4 h
half-life (PK test in mice; mouse, PO 20 mg/kg, plasma): 379 ± 209 min
SMILES: COc1ccc(F)cc1C(=O)NCc1ccc(-c2nn(-c3ccc(N4CCN(CC5CCN(c6ccc(N7CCC(=O)NC7=O)c(C)c6)CC5)CC4)nc3)c3ncnc(N)c23)cc1 [Compound I-2, N-(4-(4-amino-1-(6-(4-((1-(4-(2,4-dioxotetrahydropyrimidin-1(2H)-yl)-3-methylphenyl)piperidin-4-yl)methyl)piperazin-1-yl)pyridin-3-yl)-1H-pyrazolo[3,4-d]pyrimidin-3-yl)benzyl)-5-fluoro-2-methoxybenzamide]
IC50 (mino cells): 14 nM
TGITV (Relative tumor volume inhibition rate) (Mino cell xenograft): 80.75%
Tumor volume (Mino cell xenograft; end of experiment, Mean ± SD): 955.81 ± 343.68 mm^3
T/C (Tweight/Cweight) ([1]; 15 mg/kg): 11.93%
Tumor weight ([1]; 15 mg/kg): 0.345 ± 0.082 g
T/C (Tweight/Cweight) ([1]; 30 mg/kg): 12.76%
Tumor weight ([1]; 30 mg/kg): 0.369 ± 0.043 g
